Counter-ions that a name gives are not always drawn. Like-named read-outs stand apart in the source and are kept apart here.
Molecular target: BRAF^V600E protein (Homo sapiens, UniProt P15056, V600E)
Experiment: HiBiT cellular BRAF V600E degradation assay
Format: cell-based
Conditions: for DC50: A375.10 cells (HiBiT tag knocked in at N-terminal of BRAF V600E), concentration at which 50% of total cellular BRAF V600E is degraded; for Emax: read-out: HiBit 24 h Emax
[1] = A375.10 cells, 24 h incubation, Emax = amount of residual protein remaining in the cell after compound treatment

BRAF^V600E protein, sequence (P15056 whole entry V600E): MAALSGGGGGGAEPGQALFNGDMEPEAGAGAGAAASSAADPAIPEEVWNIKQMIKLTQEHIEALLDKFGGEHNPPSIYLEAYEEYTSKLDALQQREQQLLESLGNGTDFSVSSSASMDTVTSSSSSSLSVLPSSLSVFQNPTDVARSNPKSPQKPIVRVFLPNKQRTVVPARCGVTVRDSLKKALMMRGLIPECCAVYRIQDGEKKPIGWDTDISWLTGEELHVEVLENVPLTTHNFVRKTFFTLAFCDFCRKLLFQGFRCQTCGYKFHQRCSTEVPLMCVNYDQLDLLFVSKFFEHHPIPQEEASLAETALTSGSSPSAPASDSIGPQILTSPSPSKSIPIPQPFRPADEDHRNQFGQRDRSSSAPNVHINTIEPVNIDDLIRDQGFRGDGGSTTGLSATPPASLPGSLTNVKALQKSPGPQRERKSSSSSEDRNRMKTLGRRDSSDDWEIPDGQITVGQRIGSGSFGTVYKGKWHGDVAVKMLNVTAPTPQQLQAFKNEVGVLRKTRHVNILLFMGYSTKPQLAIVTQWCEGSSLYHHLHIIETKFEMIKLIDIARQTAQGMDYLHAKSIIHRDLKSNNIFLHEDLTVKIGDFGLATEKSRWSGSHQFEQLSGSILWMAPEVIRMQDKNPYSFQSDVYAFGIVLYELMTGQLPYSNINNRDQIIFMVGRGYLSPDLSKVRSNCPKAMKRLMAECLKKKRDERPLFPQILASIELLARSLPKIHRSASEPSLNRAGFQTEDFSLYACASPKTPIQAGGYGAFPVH

Q: Which results are given for `CCN(C)S(=O)(=O)Nc1ccc(F)c(C(=O)c2c[nH]c3ncc(-c4ccc(N5CCN(C(=O)CC6(O)CCN(c7ccc(NC8CCC(=O)NC8=O)cc7)CC6)CC5)nc4)cc23)c1F` (stereo not drawn) [Example 76, 5-[6-[4-[2-[1-[4-[(2,6-dioxo-3-piperidyl)amino]phenyl]-4-hydroxy-4-piperidyl]acetyl]piperazin-1-yl]-3-pyridyl]-3-[3-[[ethyl(methyl)sulfamoyl]amino]-2,6-difluoro-benzoyl]-1H-pyrrolo[2,3-b]pyridine]?
A: DC50 (24 h incubation): 0.00781 µM; Emax [1]: 14.2%

Q: With `O=C1CCC(Oc2ccc(C3CCN(C(=O)NC4CCN(Cc5ccc(-c6cnc7[nH]cc(C(=O)c8c(F)ccc(NS(=O)(=O)N9CCCC9)c8F)c7c6)cc5)CC4)CC3)cc2)C(=O)N1` (stereo not drawn) [Example A27, N-[1-[[4-[3-[2,6-Difluoro-3-(pyrrolidin-1-ylsulfonylamino)benzoyl]-1H-pyrrolo[2,3-b]pyridin-5-yl]phenyl]methyl]piperidin-4-yl]-4-[4-(2,6-dioxopiperidin-3-yl)oxyphenyl]piperidine-1-carboxamide; formic acid] as the compound, how does the DC50 (24 h incubation) read?
A: 0.104 µM

Q: And the Emax [1]?
A: 30%

Q: How did the DC50 (24 h incubation) turn out when `CCN(C)S(=O)(=O)Nc1ccc(F)c(C(=O)c2c[nH]c3ncc(-c4cnc(N5CCc6c(CN7CCC(c8ccc(NC9CCC(=O)NC9=O)cc8)CC7)cccc6C5)nc4)cc23)c1F` (stereo not drawn) [Example 150, 5-[[4-[4-[(2,6-dioxo-3-piperidyl)amino]phenyl]-1-piperidyl]methyl]-2-[5-[3-[3-[[ethyl(methyl)sulfamoyl]amino]-2,6-difluoro-benzoyl]-1H-pyrrolo[2,3-b]pyridin-5-yl]pyrimidin-2-yl]-3,4-dihydro-1H-isoquinoline] was run?
A: 0.0328 µM

Q: And the Emax [1]?
A: 13.3%

Q: `CCN(C)S(=O)(=O)Nc1ccc(F)c(C(=O)c2c[nH]c3ncc(-c4cnc(N5CCC(NC(=O)CN6CCC(c7ccc(NC8CCC(=O)NC8=O)cc7)CC6)CC5)nc4)cc23)c1F` (stereo not drawn) [Example A62, 2-[4-[4-[(2,6-Dioxopiperidin-3-yl)amino]phenyl]piperidin-1-yl]-N-[1-[5-[3-[3-[[ethyl(methyl)sulfamoyl]amino]-2,6-difluorobenzoyl]-1H-pyrrolo[2,3-b]pyridin-5-yl]pyrimidin-2-yl]piperidin-4-yl]acetamide;formic acid] was tested. Which DC50 (24 h incubation) did it give?
A: 0.008 µM

Q: And the Emax [1]?
A: 18%

Q: Which DC50 (24 h incubation) does the source give for `CCN(C)S(=O)(=O)Nc1ccc(F)c(C(=O)c2c[nH]c3ncc(-c4cnc(N5CCN(C(=O)CN6CCC(c7ccc(N8CCC(=O)NC8=O)cc7F)CC6)CC5)nc4)cc23)c1F` [Example 44, 5-[2-[4-[2-[4-[4-(2,4-dioxohexahydropyrimidin-1-yl)-2-fluoro-phenyl]-1-piperidyl]acetyl]piperazin-1-yl]pyrimidin-5-yl]-3-[3-[[ethyl(methyl)sulfamoyl]amino]-2,6-difluoro-benzoyl]-1H-pyrrolo[2,3-b]pyridine] here?
A: 0.0413 µM

Q: What about the Emax [1] of the same compound?
A: 13.2%

Q: `CCN(C)S(=O)(=O)Nc1ccc(F)c(C(=O)c2c[nH]c3ncc(-c4ccc(N5CCC(NCC(=O)N6CCC(c7ccc(OC8CCC(=O)NC8=O)cc7)CC6)CC5)cc4)cc23)c1F` (stereo not drawn) [Example A99, 5-[4-[4-[[2-[4-[4-(2,6-Dioxopiperidin-3-yl)oxyphenyl]piperidin-1-yl]-2-oxoethyl]amino]piperidin-1-yl]phenyl]-3-[3-[[ethyl(methyl)sulfamoyl]amino]-2,6-difluorobenzoyl]-1H-pyrrolo[2,3-b]pyridine;hydrochloride] was tested. Which DC50 (24 h incubation) did it give?
A: 0.032 µM

Q: And the Emax [1]?
A: 9%

Q: `CCN(C)S(=O)(=O)Nc1cccc(C(=O)c2c[nH]c3ncc(-c4ccc(N5CCN(C(=O)CN6CCC(c7ccc(NC8CCC(=O)NC8=O)cc7)CC6)CC5)nc4)cc23)c1Br` (stereo not drawn) [Example A114, 3-[2-Bromo-3-[[ethyl(methyl)sulfamoyl]amino]benzoyl]-5-[6-[4-[2-[4-[4-[(2,6-dioxopiperidin-3-yl)amino]phenyl]piperidin-1-yl]acetyl]piperazin-1-yl]pyridin-3-yl]-1H-pyrrolo[2,3-b]pyridine] was tested. Which DC50 (24 h incubation) did it give?
A: 0.00883 µM

Q: And the Emax [1]?
A: 7.68%

Q: Which results are given for `CCN(C)S(=O)(=O)Nc1ccc(F)c(C(=O)c2c[nH]c3ncc(-c4ccc(N5CC6(CN(C(=O)CN7CCN(c8ccc(NC9CCC(=O)NC9=O)cc8)CC7)C6)C5)nc4)cc23)c1F` (stereo not drawn) [Example A77, 5-[6-[2-[2-[4-[4-[(2,6-Dioxopiperidin-3-yl)amino]phenyl]piperazin-1-yl]acetyl]-2,6-diazaspiro[3.3]heptan-6-yl]pyridin-3-yl]-3-[3-[[ethyl(methyl)sulfamoyl]amino]-2,6-difluorobenzoyl]-1H-pyrrolo[2,3-b]pyridine]?
A: DC50 (24 h incubation): 0.047 µM; Emax [1]: 31%

Q: Which results are given for `CCN(C)S(=O)(=O)Nc1ccc(F)c(C(=O)c2c[nH]c3ncc(-c4cnc(N5CCN(C(=O)CC6(O)CCN(c7ncc(NC8CCC(=O)NC8=O)cc7F)CC6)CC5)nc4)cc23)c1F` (stereo not drawn) [Example 58, 5-[2-[4-[2-[1-[5-[(2,6-dioxo-3-piperidyl)amino]-3-fluoro-2-pyridyl]-4-hydroxy-4-piperidyl]acetyl]piperazin-1-yl]pyrimidin-5-yl]-3-[3-[[ethyl(methyl)sulfamoyl]amino]-2,6-difluoro-benzoyl]-1H-pyrrolo[2,3-b]pyridine]?
A: DC50 (24 h incubation): 0.00425 µM; Emax [1]: 9.42%

Q: `CCN(C)S(=O)(=O)Nc1ccc(F)c(C(=O)c2c[nH]c3ncc(-c4ccc(N5CCN(C(=O)CC6(O)CCN(c7ccc(NC8CCC(=O)NC8=O)c(F)c7)CC6)CC5)cc4)cc23)c1F` (stereo not drawn) [Example 184, 5-[4-[4-[2-[1-[4-[(2,6-dioxo-3-piperidyl)amino]-3-fluoro-phenyl]-4-hydroxy-4-piperidyl]acetyl]piperazin-1-yl]phenyl]-3-[3-[[ethyl(methyl)sulfamoyl]amino]-2,6-difluoro-benzoyl]-1H-pyrrolo[2,3-b]pyridine] was tested. Which DC50 (24 h incubation) did it give?
A: 0.00354 µM

Q: And the Emax [1]?
A: 9.04%

Q: With `O=C1CCC(c2ccc(C3CCN(CC(=O)N4CCN(c5ccc(-c6cnc7[nH]cc(C(=O)c8c(F)ccc(NS(=O)(=O)N9CCCC9)c8F)c7c6)cc5)CC4)CC3)cc2)C(=O)N1` (stereo not drawn) [Example A85, N-[3-[5-[4-[4-[2-[4-[4-(2,6-Dioxopiperidin-3-yl)phenyl]piperidin-1-yl]acetyl]piperazin-1-yl]phenyl]-1H-pyrrolo[2,3-b]pyridine-3-carbonyl]-2,4-difluorophenyl]pyrrolidine-1-sulfonamide] as the compound, how does the DC50 (24 h incubation) read?
A: 0.016 µM

Q: And the Emax [1]?
A: 11%

Q: What does the source list for `CC(C)S(=O)(=O)Nc1ccc(F)c(C(=O)c2c[nH]c3ncc(-c4cnc(N5CCN(C(=O)CN6CCC(c7ccc(OC8CCC(=O)NC8=O)cc7)CC6)CC5)nc4)cc23)c1F` (stereo not drawn) [Example 7, N-[3-[5-[2-[4-[2-[4-[4-[(2,6-dioxo-3-piperidyl)oxy]phenyl]-1-piperidyl]acetyl]piperazin-1-yl]pyrimidin-5-yl]-1H-pyrrolo[2,3-b]pyridine-3-carbonyl]-2,4-difluoro-phenyl]propane-2-sulfonamide]?
A: DC50 (24 h incubation): 0.0125 µM; Emax [1]: 10.3%

Q: How did the DC50 (24 h incubation) turn out when `CCN(C)S(=O)(=O)Nc1ccc(F)c(C(=O)c2c[nH]c3ncc(-c4cnc(N5CCN(CCN6CCC(c7ccc(NC8CCC(=O)NC8=O)cc7)CC6=O)CC5)nc4)cc23)c1F` (stereo not drawn) [Example 146, 5-[2-[4-[2-[4-[4-[(2,6-dioxo-3-piperidyl)amino]phenyl]-2-oxo-1-piperidyl]ethyl]piperazin-1-yl]pyrimidin-5-yl]-3-[3-[[ethyl(methyl)sulfamoyl]amino]-2,6-difluoro-benzoyl]-1H-pyrrolo[2,3-b]pyridine] was run?
A: 0.0144 µM

Q: What about the Emax [1] of the same compound?
A: 9.32%

Q: Which DC50 (24 h incubation) does the source give for `CCN(C)S(=O)(=O)Nc1ccc(F)c(C(=O)c2c[nH]c3ncc(-c4cnc(N5CCN(C(=O)CN6CCC(c7ccc(NC8CCC(=O)NC8=O)cc7)CC6)CC5)c(C#N)c4)cc23)c1F` (stereo not drawn) [Example 82, 5-[5-cyano-6-[4-[2-[4-[4-[(2,6-dioxo-3-piperidyl)amino]phenyl]-1-piperidyl]acetyl]piperazin-1-yl]-3-pyridyl]-3-[3-[[ethyl(methyl)sulfamoyl]amino]-2,6-difluoro-benzoyl]-1H-pyrrolo[2,3-b]pyridine] here?
A: 0.00757 µM

Q: What about the Emax of the same compound?
A: 7.6%

Q: Which results are given for `CCN(C)S(=O)(=O)Nc1ccc(F)c(C(=O)c2c[nH]c3ncc(-c4ccc(N5CCN(C(=O)CC6(O)CCN(c7ccc(NC8CCC(=O)NC8=O)cc7F)C6)CC5)cc4)cc23)c1F` (stereo not drawn) [Example 87, 5-[4-[4-[2-[1-[4-[(2,6-dioxo-3-piperidyl)amino]-2-fluoro-phenyl]-3-hydroxy-pyrrolidin-3-yl]acetyl]piperazin-1-yl]phenyl]-3-[3-[[ethyl(methyl)sulfamoyl]amino]-2,6-difluoro-benzoyl]-1H-pyrrolo[2,3-b]pyridine]?
A: DC50 (24 h incubation): 0.0133 µM; Emax [1]: 9.64%

Q: For `CCN(C)S(=O)(=O)Nc1cccc(C(=O)c2c[nH]c3ncc(-c4ccc(N5CCN(C(=O)CC6(O)CCN(c7ncc(NC8CCC(=O)NC8=O)cc7F)CC6)CC5)nc4)cc23)c1F` (stereo not drawn) [Example 115, 5-[6-[4-[2-[1-[5-[(2,6-dioxo-3-piperidyl)amino]-3-fluoro-2-pyridyl]-4-hydroxy-4-piperidyl]acetyl]piperazin-1-yl]-3-pyridyl]-3-[3-[[ethyl(methyl)sulfamoyl]amino]-2-fluoro-benzoyl]-1H-pyrrolo[2,3-b]pyridine], which DC50 (24 h incubation) is on record?
A: 0.00513 µM

Q: And the Emax [1]?
A: 12.2%

Q: Which results are given for `CCN(C)S(=O)(=O)Nc1ccc(F)c(C(=O)c2c[nH]c3ncc(-c4ccc(N5CCN(C(=O)CN6CCC(c7ccc(O[C@H]8CCC(=O)NC8=O)cc7)CC6)CC5)nc4)cc23)c1F` [Example 73, 5-[6-[4-[2-[4-[4-[[(3S)-2,6-dioxo-3-piperidyl]oxy]phenyl]-1-piperidyl]acetyl]piperazin-1-yl]-3-pyridyl]-3-[3-[[ethyl(methyl)sulfamoyl]amino]-2,6-difluoro-benzoyl]-1H-pyrrolo[2,3-b]pyridine]?
A: DC50 (24 h incubation): 0.0123 µM; HiBit 24 h Emax [1]: 8.05%

Q: `O=C1CCC(Nc2ccc(CC(=O)N[C@H]3C[C@H](OC4CCN(c5ccc(-c6cnc7[nH]cc(C(=O)c8c(F)ccc(NS(=O)(=O)N9CCCC9)c8F)c7c6)cn5)CC4)C3)cc2)C(=O)N1` (stereo partly drawn) [Example A105, N-[3-[1-[5-[3-[2,6-Difluoro-3-(pyrrolidin-1-ylsulfonylamino)benzoyl]-1H-pyrrolo[2,3-b]pyridin-5-yl]pyridin-2-yl]piperidin-4-yl]oxycyclobutyl]-2-[4-[(2,6-dioxopiperidin-3-yl)amino]phenyl]acetamide] was tested. Which DC50 (24 h incubation) did it give?
A: 0.024 µM

Q: What about the Emax [1] of the same compound?
A: 30%
